Molecular target: T1, FLuc-C-HiBiT (Photinus pyralis, UniProt P08659)
T1 construct: firefly luciferase with C-terminal HiBiT tag, E. coli expressed
Assay: biochemical
Details: enzyme activity, 10 uM ATP; read-out: IC50 or SDR50 (mM) / FLuc E

T1 sequence (P08659 whole entry, looked up): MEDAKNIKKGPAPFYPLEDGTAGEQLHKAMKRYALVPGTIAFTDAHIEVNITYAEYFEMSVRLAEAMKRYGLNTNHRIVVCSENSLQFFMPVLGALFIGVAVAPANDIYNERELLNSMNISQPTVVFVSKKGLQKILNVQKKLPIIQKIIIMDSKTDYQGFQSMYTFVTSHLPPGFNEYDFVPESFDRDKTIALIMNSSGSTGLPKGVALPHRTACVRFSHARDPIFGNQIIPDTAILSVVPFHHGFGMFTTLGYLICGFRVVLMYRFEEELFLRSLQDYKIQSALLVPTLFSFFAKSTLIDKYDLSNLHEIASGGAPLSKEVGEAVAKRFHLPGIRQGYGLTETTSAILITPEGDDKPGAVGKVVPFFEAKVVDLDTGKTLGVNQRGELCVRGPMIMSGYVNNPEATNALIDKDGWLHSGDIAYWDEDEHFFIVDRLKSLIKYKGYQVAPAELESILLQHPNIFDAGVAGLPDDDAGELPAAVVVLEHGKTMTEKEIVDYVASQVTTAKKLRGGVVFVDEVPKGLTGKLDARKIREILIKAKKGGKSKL

Row | Structure (SMILES) | IC50
1 | CSc1cccc(NC(=O)Nc2cccc(-c3ccc(N4CCOCC4)nn3)c2)c1 [NCGC00427606-01] | 1.57 µM
2 | CC(=O)N1CCNc2cc(-c3cccc(N4CCOCC4)c3)ncc2C1 [NCGC00411247-01] | 18 µM
3 | CCOc1ccc(-c2cc(CCCC(=O)NCCc3ccc(OC)c(OC)c3)no2)cc1 [NCGC00110832-01] | 9.89 µM
4 | CC(Cc1cnccn1)Nc1ccc(-c2nc(-c3cccc(Cl)c3)no2)cn1 (stereo not drawn) [NCGC00425352-01] | 11.1 µM
5 | Cc1ccc(-n2ncc3c(N(C)C)ncnc32)cc1Cl [NCGC00139189-01] | 2.21 µM
6 | COCCNc1ncc(-c2cccc(NC(C)=O)c2)c2c1OCC2 [NCGC00412815-01] | 16.1 µM
7 | O=C(Nc1ccccc1)c1nc2c(o1)CCN(Cc1ccccn1)CC2 [NCGC00413398-01] | 18 µM
8 | CCOP(=O)(Cc1ccc(-c2nc3ccccc3s2)cc1)OCC [NCGC00538319-01] | 11.1 µM
9 | Cc1ccc(-n2ncc3c(N4CCCC(C)C4)ncnc32)c(C)c1 (stereo not drawn) [NCGC00081401-03] | 11.1 µM
10 | Cc1ccc(-n2ncc3c(NC4CCCCC4)ncnc32)cc1C [NCGC00139081-01] | 1.76 µM
11 | COc1cccc(C(=O)Nc2ccc3nc(SCC(=O)N4CCOCC4)sc3c2)c1 [NCGC00118677-01] | 9.89 µM
12 | COc1ccc(-c2cc3c(cn2)CN(Cc2ccncc2)CCN3)cc1 [NCGC00411159-01] | 16.1 µM
13 | CCOc1ccc(-c2cn3nc(CC(C)C)sc3n2)cc1 [NCGC00117462-01] | 4.95 µM
14 | O=C(Nc1cccc(-c2nc3ccccc3s2)c1)c1cc2ccccc2oc1=O [NCGC00688715-01] | > 30 µM
15 | c1ccc(Nc2ncc(-c3cccnc3)c3c2OCC3)cc1 [NCGC00412806-01] | 22.6 µM
16 | Cc1cc(-c2cc3c(cn2)CN(Cc2ccccc2O)CCN3)ccn1 [NCGC00411040-01] | 18 µM
17 | Cc1cccc(-n2ncc3c(N4CCCCCC4)ncnc32)c1 [NCGC00139171-01] | 0.881 µM
18 | CCn1cnnc1CC1CCN(C(=O)c2cc(-c3ccc(C)c(C)c3)nc3ccccc23)CC1 [NCGC00456253-01] | 2.79 µM
19 | Cc1ccc(C(=O)Nc2cccc3cccnc23)cc1Cl [NCGC00103195-01] | > 30 µM
20 | COc1cc(Cl)ccc1-c1ccc(COc2ccc3c(cnn3CCC(=O)O)c2)cc1 [NCGC00418159-01] | 20.2 µM
21 | O=C(NC1CCCN(c2cc(-c3ccc(Cl)cc3)n[nH]2)C1)c1ccc2ncccc2c1 (stereo not drawn) [NCGC00437446-01] | 4.95 µM

Row | Structure (SMILES) | IC50
22 | O=C(O)c1ccccc1-c1nc2ccccc2s1 [NCGC00645508-01] | > 30 µM
23 | CCCCNc1nc(N)c2[nH]c(=O)n(Cc3ccc(OCCN(C)C)nc3)c2n1 [NCGC00387452-01] | > 30 µM
24 | Cc1c(-c2ccccc2)[nH]c2c(CNC(=O)C3=NN(C)C(=O)CC3)cc(Cl)cc12 [NCGC00439904-01] | 12.4 µM
25 | Cc1cc(C)cc(OCC(=O)Nc2ccc(-c3nc4ccccc4s3)cc2)c1 [NCGC00119151-01] | > 30 µM
26 | Cc1ccc(C2Cn3nnc(C(=O)N4CCC(C(=O)NCCc5ccccc5)CC4)c3CO2)cc1 (stereo not drawn) [NCGC00449535-01] | 11.1 µM
27 | O=C(NCc1ccc(F)cc1)N1CC(Oc2ccc(-c3nc(-c4ccccc4)no3)cc2)C1 [NCGC00441109-01] | > 30 µM
28 | O=C(COC(=O)c1cc(-c2cccs2)nc2ccccc12)c1ccc(Br)cc1 [NCGC00100768-01] | > 30 µM
29 | CCOC(=O)c1ccc(NC(=O)c2nsc3ccccc23)cc1 [NCGC00113675-01] | 3.51 µM
30 | O=C(Nc1ccc(F)cc1)c1cc2cccnn2n1 [NCGC00477081-01] | 18 µM
31 | CCCNC(=O)Cn1c(C)ccc(NC(=O)Nc2ccc(OC)cc2)c1=O [NCGC00430826-01] | 6.24 µM
32 | Cc1ccc(C2Cn3nnc(C(=O)N4CCC(C(=O)Nc5ccc(F)cc5)CC4)c3CO2)cc1 (stereo not drawn) [NCGC00449591-01] | 11.1 µM
33 | Cc1ccc(NC(=O)c2ccc3c(c2)N(C)C2CCCN2C3=O)cc1C (stereo not drawn) [NCGC00452108-01] | 12.4 µM
34 | COc1cccc(NC(=O)CCc2nc(-c3ccc(C(C)(C)C)cc3)no2)c1 [NCGC00115609-01] | 7 µM
35 | O=C(O)c1cccc(-c2noc(-c3ccccc3C(F)(F)F)n2)c1 [NCGC00168768-02] | 0.0624 µM
36 | COc1ccc(-c2cc(N3CCCC(NC(=O)c4cc(OC)c(OC)c(OC)c4)C3)[nH]n2)cc1 (stereo not drawn) [NCGC00437614-01] | 5.56 µM
37 | O=C(Nc1ccccc1)c1nc2c(o1)CCN(Cc1ccccc1)CC2 [NCGC00413286-01] | 4.53 µM
38 | COc1ccccc1C(=O)Nc1onc2c1CCCC2 [NCGC00115908-01] | 9.89 µM
39 | Cc1ccc(C2Cn3nnc(C(=O)N4CCC(C(=O)NCc5ccccn5)CC4)c3CO2)cc1 (stereo not drawn) [NCGC00449551-01] | 11.1 µM
40 | COc1ccc(NC(=O)Nc2cccc(-c3ccc(N4CCOCC4)nn3)c2)cc1 [NCGC00427572-01] | 1.76 µM
41 | O=C(NC1CCCN(c2cc(-c3ccc(F)cc3)n[nH]2)C1)c1ccc2ncccc2c1 (stereo not drawn) [NCGC00437580-01] | 8.81 µM
42 | CC(C)c1ccc(NC(=O)O[C@@H]2CO[C@H]3[C@@H]2OC[C@@H]3N[S+](=O)([O-])c2cccs2)cc1 [NCGC00399549-01] | 8.81 µM

Row | Structure (SMILES) | IC50
43 | O=C(Nc1cccc(-c2ccc(N3CCOCC3)nn2)c1)Nc1cc(F)ccc1F [NCGC00427590-01] | 2.48 µM
44 | CN(C)c1cccc(C(=O)Nc2ccc(-c3nc4ccccc4s3)cc2)c1 [NCGC00137782-01] | 8.81 µM
45 | Cc1ccc(N2CCN(c3nc(C(=O)O)cs3)CC2)cc1 [NCGC00432723-01] | 1.97 µM
46 | Cc1cn2c(=O)cc(COC(=O)c3ccccc3F)nc2s1 [NCGC00129878-01] | 6.24 µM
47 | COc1ccccc1NC(=O)Cn1c(C)ccc(NC(=O)Nc2ccc(C)cc2)c1=O [NCGC00430778-01] | 0.7 µM
48 | CCc1noc(-c2nc(-c3ccccc3C)no2)n1 [NCGC00450081-01] | > 30 µM
49 | CSc1ccc(-c2nc3c([nH]2)CC(C)(C)CNC3=O)cc1 [NCGC00448280-01] | 12.4 µM
50 | CCOC(=O)c1cccc(NC(=O)CCc2c(C)nc3cc(-c4ccc(Cl)cc4)nn3c2C)c1 [NCGC00110030-01] | 8.81 µM
51 | COc1ccc(C(=O)Nc2ccc(-c3nc4ccccc4s3)cc2C)cc1Cl [NCGC00102365-01] | > 30 µM
52 | CN(C)C(=O)c1ccc(-c2cccc(-c3ccn(CC4CC4)n3)c2)o1 [NCGC00426335-01] | 7.85 µM
53 | Cc1c(CN2CCOc3c(O)cc(-c4nc5ccccc5s4)cc3C2)cnn1C [NCGC00240749-01] | > 30 µM
54 | Cc1ccc2nc(-c3ccc(NC(=O)COc4ccccc4)cc3)sc2c1 [NCGC00098210-01] | 6.24 µM
55 | Cc1ccc(CSc2nc3cccnc3n2Cc2ccc(C(=O)NC3CC3)cc2)cc1 [NCGC00123844-01] | 0.394 µM
56 | Cc1ccc(NC(=O)CCc2c(C)nc3cc(-c4ccccc4)nn3c2C)cc1F [NCGC00109926-01] | 11.1 µM
57 | Clc1ccc(-c2cc3c(cn2)CN(Cc2ccncc2)CCN3)cc1 [NCGC00411101-01] | 16.1 µM
58 | O=C1OCCN1CCNc1ccc(-c2nc(-c3ccccc3F)no2)cn1 [NCGC00428584-01] | 12.4 µM
59 | Cc1ccc(OCc2nc(C3CN(C(=O)c4n[nH]c5ccccc45)C3)no2)cc1 [NCGC00456269-01] | 8.81 µM
60 | CCc1ccccc1Nc1nc(-c2cccc(OC)c2OC)no1 [NCGC00422354-01] | 11.1 µM
61 | Cc1cc2c(c(-c3nc4ccccc4s3)c1)OC(CNC(=O)c1occc1C)C2 (stereo not drawn) [NCGC00240406-01] | 12.4 µM
62 | Cc1cn2nc(C(=O)Nc3ccc(C(=O)N4CCCC4)cc3)cc2c(=O)[nH]1 [NCGC00453923-01] | 9.89 µM
63 | CC(C)c1ccc(NC(=O)c2ccc(CN3C(=O)NC4(CCOCC4)C3=O)cc2)cc1 [NCGC00454608-01] | 3.51 µM

Row | Structure (SMILES) | IC50
64 | O=C1NCCCCCCN(Cc2ccncc2)[C@@H]2CN(C(=O)Nc3ccc4c(c3)OCCO4)CC[C@H]12 [NCGC00467232-01] | 11.1 µM
65 | CCOC(=O)N1CCc2c(sc(NCc3cccc(F)c3)c2C(=O)Nc2ccc(OC)cc2OC)C1 [NCGC00140797-01] | 2.48 µM
66 | COc1ccccc1C(=O)Nc1ccc(-c2nc3ccccc3s2)c(C)c1 [NCGC00137840-01] | 9.89 µM
67 | COc1cccc(CN2CCc3nc(Nc4ccc5c(c4)OCCO5)ncc3C2)c1 [NCGC00131180-01] | 11.1 µM
68 | CCC[C@H](C)Oc1nc(N)c2[nH]c(=O)n(CCCCCN3CCCCC3)c2n1 [NCGC00856659-01] | > 30 µM
69 | Cc1cc2nn(-c3ccc(Cl)cc3)nc2cc1NC(=O)C(C)C [NCGC00099081-01] | 0.7 µM
70 | CN1CCOc2nc(-c3cccc(OC(F)(F)F)c3)ncc2C1=O [NCGC00413529-01] | 18 µM
71 | CCOc1ccc(-c2cc(CCCC(=O)NCCc3ccc(OCC)c(OCC)c3)no2)cc1 [NCGC00110850-01] | 3.51 µM
72 | Cc1nn(-c2ccc(C(C)(C)C)cc2)c(C)c1[C@@H]1C=C[C@@H](NC(=O)c2ccco2)C1 [NCGC00394638-01] | 20.2 µM
73 | COc1ccc(OCc2cc(C(=O)N3C[C@H]4CC[C@H]3C4)n[nH]2)c(Cl)c1 [NCGC00428264-01] | > 30 µM
74 | COc1cccc(CN2CCc3c(cc(C(=O)Nc4cc(C)ccc4OC)n3C)C2)c1 [NCGC00430592-01] | > 30 µM
75 | COc1ccc(-c2noc(N3CCc4ccccc43)n2)cc1 [NCGC00422328-01] | 3.13 µM
76 | Cc1ccc(C(=O)O)cc1Nc1nc2ccccc2n2nnnc12 [NCGC00106886-01] | 12.4 µM
77 | Cc1ccc(-n2ncc3c(N4CCCCC4)ncnc32)cc1Cl [NCGC00139209-01] | 0.785 µM
78 | O=C(c1ccc2oc(-c3cccc(F)c3)nc2c1)N1CCCCC1CCO (stereo not drawn) [NCGC00427691-01] | 14 µM
79 | CCN1C(=O)CCc2cc(NC(=O)c3ccc(OC(F)(F)F)cc3)ccc21 [NCGC00425397-01] | 11.1 µM
80 | Cc1ccc(NC(=O)Nc2ccc(C)n(CC(=O)NC3CCCC3)c2=O)cc1 [NCGC00430792-01] | 0.7 µM
81 | c1ccc(CNc2cc(-c3cc(N4CCCCC4)ncn3)c3cc[nH]c3n2)nc1 [NCGC00436665-01] | 9.89 µM
82 | COc1cccc(C(=O)Nc2ccc(-c3nc4ccccc4s3)c(O)c2)c1 [NCGC00594708-01] | > 30 µM
83 | CC(=O)N1CCNc2cc(Nc3cccc(N(C)C)c3)ncc2C1 [NCGC00411238-01] | 16.1 µM
84 | NC(=O)C1CCN(c2ncnc3c2cnn3-c2cccc(Cl)c2)CC1 [NCGC00139154-01] | > 30 µM

— article PMC12064818, “A general assay platform to study protein pharmacology using ligand-dependent structural dynamics” (Nature Communications, 2025)
